Measurements taken from US20260207720A1, “COMPOSITIONS AND METHODS FOR TREATING FUNGAL INFECTIONS” (MUCPharm Pty Ltd, priority 2022, published 2026).
In brackets after ≈: the same amount, converted by molar mass. Read-outs that look alike come from different tables or passages of the source.

Assays:
[1] = tested on: Rhizopus microsporus; experiment: Chequerboard broth microdilution antifungal susceptibility testing (MIC); type: cell-based; conditions: for isolates with more than 10× increase: Rhizopus microspores, antifungal with BromAc; for MIC / Observed inhibitory effect: Rhizopus microsporus; for Observed inhibitory effect: antifungal in combination with BromAc (5 mg/ml Acetylcysteine+12.5 μg/ml Bromelain) vs alone
Experimental: (§1) Unless otherwise described, fungal cultures were grown on potato dextrose agar plates at 35° C. until mature (appearance of conidia) and used to prepare suspensions in sterile water. […] These suspensions were then added in equal volume to solutions containing the candidate species described above and incubated at 35° C. for 24 hr. Plates were then analysed for fungal growth inhibition and MIC values determined. […] [MICA (combined)/MICA]+[MICB (combined)/MICB] MICA (combined) is the MIC of drug A when both drugs (i.e. drug A and drug B) are present and MICA is the MIC of drug A used in isolation. Similarly, MICB (combined) is the MIC of drug B when both drugs are present and MICB is the MIC of drug B used in isolation.

[2] = tested on: Rhizopus arrhizus; experiment: as above; type: cell-based; conditions: for isolates with 10× increase: Rhizopus Arrhizus, antifungal with BromAc; for MIC / Observed inhibitory effect: Rhizopus arrhizus; for Observed inhibitory effect: antifungal in combination with BromAc (5 mg/ml Acetylcysteine+12.5 μg/ml Bromelain) vs alone
Experimental: as §1

[3] = Rhizopus microsporus (80-21-006-5340), drug alone, read-out: MIC
[4] = eight R. microsporus strains, read-out: MIC, average over the strains
[5] = isolate R. microsporus 1, BromAc at constant concentration where combined, read-out: MIC
[6] = isolate R. microsporus 2, BromAc at constant concentration where combined, read-out: MIC
[7] = isolate R. microsporus 3, BromAc at constant concentration where combined, read-out: MIC
[8] = isolate R. microsporus 4, BromAc at constant concentration where combined, read-out: MIC
[9] = isolate R. microsporus 5, BromAc at constant concentration where combined, read-out: MIC
[10] = isolate R. microsporus 6, BromAc at constant concentration where combined, read-out: MIC
[11] = isolate R. microsporus 7, BromAc at constant concentration where combined, read-out: MIC
[12] = isolate R. microsporus 8, BromAc at constant concentration where combined, read-out: MIC
[13] = Rhizopus arrhizus (80-21-015-4777), drug alone, read-out: MIC
[14] = eight R. arrhizus strains, read-out: MIC, average over the strains
[15] = isolate R. archizus 1, BromAc at constant concentration where combined, read-out: MIC
[16] = isolate R. archizus 2, BromAc at constant concentration where combined, read-out: MIC
[17] = isolate R. archizus 3, BromAc at constant concentration where combined, read-out: MIC
[18] = isolate R. archizus 8, BromAc at constant concentration where combined, read-out: MIC
[19] = isolate R. arrhizus 4, BromAc at constant concentration where combined, read-out: MIC
[20] = isolate R. arrhizus 5, BromAc at constant concentration where combined, read-out: MIC
[21] = isolate R. arrhizus 6, BromAc at constant concentration where combined, read-out: MIC
[22] = isolate R. arrhizus 7, BromAc at constant concentration where combined, read-out: MIC

Q: Which results are given for `C[C@@H]1[C@H](O)[C@@H](C)/C=C/C=C/C=C/C=C/C=C/C=C/C=C/[C@H](O[C@@H]2O[C@H](C)[C@@H](O)[C@H](N)[C@@H]2O)C[C@@H]2O[C@](O)(C[C@@H](O)C[C@@H](O)[C@H](O)CC[C@@H](O)C[C@@H](O)CC(=O)O[C@H]1C)C[C@H](O)[C@H]2C(=O)O` [Amphotericin B]?
A: isolates with more than 10× increase [1]: 9 of 10; MIC [1, 3]: 0.5 µg/mL (≈ 0.541 µM); MIC [1, 4]: 0.7 µg/mL (≈ 0.758 µM); MIC [1, 5]: 1 µg/mL; MIC [1, 6]: 1 µg/mL; MIC [1, 7]: 0.25 µg/mL; MIC [1, 8]: 0.5 µg/mL; MIC [1, 9]: 0.5 µg/mL; MIC [1, 10]: 0.5 µg/mL; MIC [1, 11]: 0.5 µg/mL; MIC [1, 12]: 0.5 µg/mL; Observed inhibitory effect [1]: Strong (Strong = 5-10x (or greater) inhibitory effect); effect on fungal culture (in words) ([1]; alone at 0.25 mg/L): not effective; MICs, range over the strains ([1]; eight R. microsporus strains): 0.5 to 1 µg/mL; isolates with 10× increase [2]: 8 of 8; MIC [2, 13]: 0.5 µg/mL (≈ 0.541 µM); MIC [2, 14]: 0.6 µg/mL (≈ 0.649 µM); MIC [2, 15]: 1 µg/mL; MIC [2, 16]: 0.5 µg/mL; MIC [2, 17]: 1 µg/mL; MIC [2, 18]: 0.5 µg/mL; MIC [2, 19]: 0.5 µg/mL; MIC [2, 20]: 0.5 µg/mL; MIC [2, 21]: 1 µg/mL; MIC [2, 22]: 0.5 µg/mL; Observed inhibitory effect [2]: Strong (Strong = 5-10x (or greater) inhibitory effect); effect on fungal culture (in words) ([2]; alone at 0.25 mg/L): not effective; Amphotericin concentration at which complete inhibition was seen ([2]; combined with 25 μg/mL of bromelain): 0.3 mg/L; MICs, range over the strains ([2]; eight R. arrhizus strains): 0.25 to 1 µg/mL

Q: Which results are given for `CC[C@@H]([C@H](C)O)n1ncn(-c2ccc(N3CCN(c4ccc(OC[C@@H]5CO[C@@](Cn6cncn6)(c6ccc(F)cc6F)C5)cc4)CC3)cc2)c1=O` [Posaconazole]?
A: isolates with more than 10× increase [1]: 9 of 10; MIC [1, 3]: 1 µg/mL (≈ 1.43 µM); MIC [1, 4]: 0.5 µg/mL (≈ 0.713 µM); MIC [1, 5]: 1 µg/mL; MIC [1, 6]: 1 µg/mL; MIC [1, 7]: 0.25 µg/mL; MIC [1, 8]: 0.25 µg/mL; MIC [1, 9]: 0.25 µg/mL; MIC [1, 10]: 0.25 µg/mL; MIC [1, 11]: 0.25 µg/mL; MIC [1, 12]: 0.25 µg/mL; Observed inhibitory effect [1]: Strong (Strong = 5-10x (or greater) inhibitory effect); MICs, range over the strains ([1]; eight R. microsporus strains): 0.25 to 1 µg/mL; isolates with 10× increase [2]: 7 of 8; MIC [2, 13]: 0.5 µg/mL (≈ 0.713 µM); MIC [2, 14]: 0.8 µg/mL (≈ 1.14 µM); MIC [2, 15]: 1 µg/mL; MIC [2, 16]: 1 µg/mL; MIC [2, 17]: 0.25 µg/mL; MIC [2, 18]: 0.25 µg/mL; MIC [2, 19]: 0.25 µg/mL; MIC [2, 20]: 0.25 µg/mL; MIC [2, 21]: 0.5 µg/mL; MIC [2, 22]: 0.25 µg/mL; Observed inhibitory effect [2]: Strong (Strong = 5-10x (or greater) inhibitory effect); MICs, range over the strains ([2]; eight R. arrhizus strains): 0.25 to 1 µg/mL
